Measured values published in patent publication US6686363B2, “Cyclopropyl containing oxazolidinone antibiotics and derivatives thereof” (Kyorin Pharmaceutical Co., Ltd., priority 2001, dated 2004).
In brackets after ≈: the same amount, converted by molar mass.

Legend:
Type in all cases: cell-based
[1] = system: Enterococcus faecium VRQR (vancomycin resistant, quinolone resistant); experiment: MIC, agar dilution method on Mueller-Hinton agar with 5% defibrinated horse blood; details: 5% horse blood, 5% CO2, 35C, 24 hours
Method: (§1) The following in vitro results were obtained based on an agar dilution method except for C. pneumoniae. The activity is presented as the minimum inhibitory concentration (MIC) S. aureus and M. catarrhalis were tested on Mueller-Hinton agar, using an approximate inoculum of 1×10^4 cfu/spot an incubation temperature of 35C for 24 hours. The MIC was defined as the lowest concentration at which no visible bacterial growth was observed.
(§2) Streptococci and enterococci were tested on Mueller-Hinton agar supplemented with 5% defibrinated horse blood, using an approximate inoculum of 1×10^4 cfu/spot an incubation temperature of 35C in an atmosphere of 5% CO2 for 24 hours. The MIC was defined as the lowest concentration at which no visible bacterial growth was observed.

[2] = system: Streptococcus pneumoniae IID553; experiment: as above; details: 5% horse blood, 5% CO2, 35C, 24 hours
Method: as §1, §2

[3] = system: Streptococcus pneumoniae PRQR (penicillin resistant, quinolone resistant); experiment: as above; details: 5% horse blood, 5% CO2, 35C, 24 hours
Method: as §1, §2

[4] = system: Streptococcus pyogenes IID692; experiment: as above; details: 5% horse blood, 5% CO2, 35C, 24 hours
Method: as §1, §2

[5] = system: Moraxella catarrhalis ATCC25238; experiment: MIC, agar dilution method on Mueller-Hinton agar; details: 35C, 24 hours
Method: as §1

[6] = system: Staphylococcus aureus CR (chloramphenicol resistant); experiment: MIC, agar dilution method on Mueller-Hinton agar; details: 35C, 24 hours
Method: as §1

[7] = system: Staphylococcus aureus MR (methicillin resistant); experiment: MIC, agar dilution method on Mueller-Hinton agar; details: 35C, 24 hours
Method: as §1

[8] = system: Staphylococcus aureus Smith; experiment: MIC, agar dilution method on Mueller-Hinton agar; details: 35C, 24 hours
Method: as §1

[9] = system: Chlamydia pneumoniae ATCCVR-1360; experiment: MIC, chlamydial inclusion assay in infected HeLa 229 cells; details: ATCCVR1360; Chlamydia pneumoniae ATCCVR-1360 in HeLa 229 cells; 72 hours, lowest concentration with no inclusion
Method: C. pneumoniae was tested using minimum essential medium supplemented with 10% heat-inactivated fetal bovine serum, 2 mM L-glutamine, […] cycloheximide and non essential amino acid. HeLa 229 cells were inoculated with 10^4 inclusion-forming units of C. pneumoniae strain per mL. Infected cells were incubated with test compounds in complete medium at 35C in an atmosphere of 5% CO2 for 72 hours. […] The MIC was defined as the lowest concentration at which no inclusion was observed.

Structure (SMILES) | MIC [1] [µg/mL] | MIC [2] [µg/mL] | MIC [3] [µg/mL] | MIC [4] [µg/mL] | MIC [5] [µg/mL] | MIC [6] [µg/mL] | MIC [7] [µg/mL] | MIC [8] [µg/mL] | MIC [9] [µg/mL]
N#CC1(c2ccc(N3C[C@H](CNc4ccon4)OC3=O)cc2F)CC1 [example 18, 5(S)-3-[4-(1-Cyanocyclopropan-1-yl)-3-fluorophenyl]-5-[N-(1,2-isoxadiazolyl-3-yl)amino]methyloxazolidin-2-one] | 1 (≈ 2.92 µM) | 1 (≈ 2.92 µM) | 1 (≈ 2.92 µM) | 1 (≈ 2.92 µM) | 8 (≈ 23.4 µM) | 16 (≈ 46.7 µM) | 0.5 (≈ 1.46 µM) | 0.5 (≈ 1.46 µM) | 
CC(=O)NC[C@H]1CN(c2ccc(C3(C#N)CC3)c(F)c2)C(=O)O1 [example 7, N-[5(S)-3-[4-(1-Cyanocyclopropan-1-yl)-3-fluorophenyl]-2-oxooxazolidin-5-ylmethyl]acetamide] | 0.5 (≈ 1.58 µM) | 1 (≈ 3.15 µM) | 1 (≈ 3.15 µM) | 0.5 (≈ 1.58 µM) | 4 (≈ 12.6 µM) | 4 (≈ 12.6 µM) | 0.5 (≈ 1.58 µM) | 0.5 (≈ 1.58 µM) | 0.5 (≈ 1.58 µM)
COC(=S)NC[C@H]1CN(c2ccc(C3(C#N)CC3)c(F)c2)C(=O)O1 [example 32, O-Methyl N-[5(S)-3-[4-(1-Cyanocyclopropan-1-yl)-3-fluorophenyl]-2-oxooxazolidin-5-ylmethyl]thiocarbonate] | 0.25 (≈ 0.716 µM) | 0.25 (≈ 0.716 µM) | 0.125 (≈ 0.358 µM) | 0.125 (≈ 0.358 µM) | 0.5 (≈ 1.43 µM) | 2 (≈ 5.72 µM) | 0.125 (≈ 0.358 µM) | 0.125 (≈ 0.358 µM) | 4 (≈ 11.4 µM)
CC(=S)NC[C@H]1CN(c2ccc(C3(C#N)CC3)c(F)c2)C(=O)O1 [example 8, N-[5(S)-3-[4-(1-Cyanocyclopropan-1-yl)-3-fluorophenyl]-2-oxooxazolidin-5-ylmethyl]thioacetamide] | 0.25 (≈ 0.75 µM) | 0.25 (≈ 0.75 µM) | 0.25 (≈ 0.75 µM) | 0.125 (≈ 0.375 µM) | 0.5 (≈ 1.5 µM) | 0.5 (≈ 1.5 µM) | 0.125 (≈ 0.375 µM) | 0.125 (≈ 0.375 µM) | 0.25 (≈ 0.75 µM)
CC(=O)NC[C@H]1CN(c2ccc(N3CCOCC3)c(F)c2)C(=O)O1 [Linezolid, reference compound] | 2 (≈ 5.93 µM) | 2 (≈ 5.93 µM) | 1 (≈ 2.96 µM) | 1 (≈ 2.96 µM) | 4 (≈ 11.9 µM) | 16 (≈ 47.4 µM) | 1 (≈ 2.96 µM) | 1 (≈ 2.96 µM) | 8 (≈ 23.7 µM)
